Experimental data taken from US8618162B2 (priority 2007, dated 2013).
Read-outs that look alike come from different tables or passages of the source.

Experiments:
Ag hmg AChE = target: T1, Ag hmg AChE (Anopheles gambiae, UniProt Q869C3); assay: Ellman AChE inhibition assay, Anopheles gambiae homogenate (Ag hmg); assay type: biochemical; conditions: for IC50: pH 7.8, 10 min preincubation; for IC50 ratio (hAChE/Ag hmg): selectivity, values in parenthesis
T1 construct: To prepare the Ag homogenate (Ag hmg) 10 Anopheles gambiae mosquitoes were combined; from tissue; host or cells: whole Anopheles gambiae mosquitoes, crude homogenate supernatant

Ag ace-1S [1] = target: T2, Ag ace-1S (Anopheles gambiae, UniProt Q869C3); assay: biochemical
T2 construct: encoding the entire wild type AgAChE protein (ace1, 737 amino acids); made in house; host or cells: Drosophila S2 cells (stably transfected, pMT/V5-His vector), clarified cell lysate

Md hmg AChE = target: T3, Md hmg AChE (Musca domestica, UniProt Q7YWJ9)
T3 construct: Comparison of Ag homogenate and Md head; host or cells: housefly head homogenate

Anopheles gambiae = assay: Live mosquito contact toxicity, WHO filter paper assay; assay type: in vivo; conditions: for Live Mosquito Contact Toxicity MC for 100% lethality at 24 hr: 1 hr exposure to treated filter paper
hAChE = target: T4, hAChE (Homo sapiens, UniProt P22303); assay: Ellman AChE inhibition assay, recombinant hAChE; assay type: biochemical
T4 construct: purchased Sigma C1682

bovine AChE = target: T5, bovine AChE (Bos taurus, UniProt P23795); conditions: read-out: potency at bovine AChE; Kohn 1965; cited from earlier work
T5 sequence (P23795 31-613): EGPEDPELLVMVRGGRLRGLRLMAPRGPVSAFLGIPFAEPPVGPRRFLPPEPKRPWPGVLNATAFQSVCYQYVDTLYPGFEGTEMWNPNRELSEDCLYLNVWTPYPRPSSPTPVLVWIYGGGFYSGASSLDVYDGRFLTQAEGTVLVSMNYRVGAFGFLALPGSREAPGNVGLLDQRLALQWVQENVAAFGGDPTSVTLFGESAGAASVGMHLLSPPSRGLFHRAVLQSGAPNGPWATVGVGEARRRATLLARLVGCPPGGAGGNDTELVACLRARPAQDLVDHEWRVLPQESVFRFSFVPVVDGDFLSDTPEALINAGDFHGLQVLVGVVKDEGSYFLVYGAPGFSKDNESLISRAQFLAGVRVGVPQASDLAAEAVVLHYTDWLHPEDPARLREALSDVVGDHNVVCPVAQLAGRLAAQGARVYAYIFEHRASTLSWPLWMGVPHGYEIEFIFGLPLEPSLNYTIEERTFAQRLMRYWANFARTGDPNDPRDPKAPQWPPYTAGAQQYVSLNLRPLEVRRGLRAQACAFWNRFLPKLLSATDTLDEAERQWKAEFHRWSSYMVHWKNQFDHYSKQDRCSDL

Ag ace-1S [2] = assay: biochemical; set-up: species or system Anopheles gambiae; conditions: selectivity, values in parenthesis
[3] = WT Anopheles gambiae homogenate, read-out: Ag WT hmg IC50
[4] = Musca domestica head homogenate; data from Metcalf / Kolbezen; read-out: Md WT hmg IC50; cited from earlier work
[5] = pH 7.8, 10 min preincubation, read-out: hAChE recomb. IC50
[6] = read-out: Md WT hmg IC50; Musca domestica head homogenate; data from Metcalf / Kolbezen; cited from earlier work
[7] = Ag WT hmg IC50, WT Anopheles gambiae homogenate

T4 sequence (P22303 32-614): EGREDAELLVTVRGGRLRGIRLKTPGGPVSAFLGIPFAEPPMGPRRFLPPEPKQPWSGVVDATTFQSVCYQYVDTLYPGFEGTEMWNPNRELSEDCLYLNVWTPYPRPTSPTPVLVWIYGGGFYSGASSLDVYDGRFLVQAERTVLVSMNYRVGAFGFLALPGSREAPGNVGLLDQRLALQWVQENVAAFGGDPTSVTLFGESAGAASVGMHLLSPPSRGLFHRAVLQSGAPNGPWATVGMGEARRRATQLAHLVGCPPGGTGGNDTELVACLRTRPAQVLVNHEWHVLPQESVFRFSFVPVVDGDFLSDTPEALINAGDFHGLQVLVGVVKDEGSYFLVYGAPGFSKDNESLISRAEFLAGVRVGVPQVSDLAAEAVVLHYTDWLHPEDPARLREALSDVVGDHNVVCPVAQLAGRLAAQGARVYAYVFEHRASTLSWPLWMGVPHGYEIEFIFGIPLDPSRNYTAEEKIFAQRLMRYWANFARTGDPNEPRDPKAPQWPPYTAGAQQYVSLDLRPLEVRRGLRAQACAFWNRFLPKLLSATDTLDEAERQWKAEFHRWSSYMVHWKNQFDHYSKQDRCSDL
T1 sequence (Q869C3 39-737): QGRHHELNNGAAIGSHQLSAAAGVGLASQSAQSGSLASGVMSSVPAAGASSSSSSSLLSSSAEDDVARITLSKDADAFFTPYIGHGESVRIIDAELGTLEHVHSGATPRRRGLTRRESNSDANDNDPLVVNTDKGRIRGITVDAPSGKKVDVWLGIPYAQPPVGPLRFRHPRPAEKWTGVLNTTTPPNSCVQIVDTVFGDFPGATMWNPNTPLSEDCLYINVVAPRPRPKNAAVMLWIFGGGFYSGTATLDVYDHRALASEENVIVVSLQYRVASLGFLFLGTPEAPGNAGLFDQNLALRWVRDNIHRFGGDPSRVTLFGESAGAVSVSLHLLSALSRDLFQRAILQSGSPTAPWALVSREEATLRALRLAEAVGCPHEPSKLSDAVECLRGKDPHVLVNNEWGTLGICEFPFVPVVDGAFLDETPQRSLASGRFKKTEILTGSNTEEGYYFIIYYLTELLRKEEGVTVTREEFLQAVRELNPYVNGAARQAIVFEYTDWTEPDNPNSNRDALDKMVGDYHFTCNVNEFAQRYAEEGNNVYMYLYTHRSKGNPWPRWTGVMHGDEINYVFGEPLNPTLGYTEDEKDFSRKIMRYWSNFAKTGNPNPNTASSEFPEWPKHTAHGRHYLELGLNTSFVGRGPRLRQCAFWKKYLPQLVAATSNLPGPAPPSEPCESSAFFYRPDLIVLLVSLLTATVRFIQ
T2 sequence (Q869C3 39-737): as above
T3 sequence (Q7YWJ9 1-692): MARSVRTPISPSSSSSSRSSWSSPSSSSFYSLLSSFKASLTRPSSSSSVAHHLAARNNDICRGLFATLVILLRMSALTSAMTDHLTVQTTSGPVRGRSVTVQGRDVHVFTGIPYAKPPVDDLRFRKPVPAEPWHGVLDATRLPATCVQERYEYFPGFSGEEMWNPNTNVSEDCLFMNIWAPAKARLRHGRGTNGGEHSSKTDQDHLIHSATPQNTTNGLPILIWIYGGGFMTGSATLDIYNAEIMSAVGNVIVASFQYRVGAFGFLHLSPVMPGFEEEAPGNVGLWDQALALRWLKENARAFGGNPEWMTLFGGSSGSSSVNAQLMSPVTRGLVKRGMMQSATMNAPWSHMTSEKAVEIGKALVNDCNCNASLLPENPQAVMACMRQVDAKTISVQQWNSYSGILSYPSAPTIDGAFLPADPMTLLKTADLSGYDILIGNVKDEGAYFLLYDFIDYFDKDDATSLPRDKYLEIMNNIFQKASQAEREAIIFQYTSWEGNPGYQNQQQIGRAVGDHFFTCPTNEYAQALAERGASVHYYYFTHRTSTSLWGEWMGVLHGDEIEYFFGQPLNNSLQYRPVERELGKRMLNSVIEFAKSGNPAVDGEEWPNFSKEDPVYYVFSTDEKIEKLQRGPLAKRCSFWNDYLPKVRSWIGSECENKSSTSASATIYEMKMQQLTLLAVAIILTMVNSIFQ

For CNC(=O)O/N=C/C(C)(C)SC [Aldicarb, reference compound], the IC50 (Ag hmg AChE; [3]) is listed as 4620 nM, the IC50 (Ag ace-1S [1]) is listed as 10900 nM and the IC50 (Md hmg AChE; [4]) is listed as 84000 nM. For the same molecule, the “Live Mosquito Contact Toxicity MC for 100% lethality at 24 hr” value (Anopheles gambiae) was 0.55 ug/cm^2.
With CNC(=O)Oc1cccc2ccccc12 [Carbaryl, reference compound] the IC50 (Ag hmg AChE; [3]) was 262 nM, the IC50 (hAChE; [5]) was 2840 nM and the IC50 (Ag ace-1S [1]) was 515 nM. The IC50 (Md hmg AChE; [4]) was 900 nM.
For CNC(=O)Oc1cccc(C(C)(C)C)c1 [Compound 1a, 3-tert-butylphenyl-N-methyl carbamate], the IC50 (hAChE) is listed as 265 nM, the IC50 (bovine AChE) is listed as 530 nM and the IC50 (Md hmg AChE; [6]) is listed as 400 nM. The “Live Mosquito Contact Toxicity MC for 100% lethality at 24 hr” value (Anopheles gambiae) was 1.1 ug/cm^2 and the “Live Mosquito Contact Toxicity MC for 100% lethality at 24 hr, with synergist” value (Anopheles gambiae; 1 hr exposure, piperonyl butoxide 0.3 mg/mL) was 0.28 ug/cm^2.
In the case of CNC(=O)Oc1cccc([Si](C)(C)C)c1 [Compound 2a, N-methyl 3-(trimethylsilyl)phenyl carbamate], the IC50 (Ag hmg AChE; [7]) is reported as 5.6 nM, the “difference in potency Ag hmg AChE vs Md hmg AChE” value (Ag hmg AChE; more potent at Ag hmg AChE) is reported as 100 fold and the “IC50 ratio (hAChE/Ag hmg)” value (Ag hmg AChE) is reported as “(95x)”. For the same molecule, the IC50 (hAChE) was 532 nM, the “IC50 ratio (hAChE/Ag ace-1S)” value (Ag ace-1S [2]) was “(130x)” and the IC50 (Ag ace-1S [1]) was 4.1 nM. The IC50 (Md hmg AChE; [6]) was 700 nM and the “Live Mosquito Contact Toxicity MC for 100% lethality at 24 hr” value (Anopheles gambiae) was 5.6 ug/cm^2.
For CNC(=O)Oc1cccc(C(C)C)c1 [Compound 4a], the IC50 (Ag hmg AChE; [7]) is given as 27 nM, the IC50 (Ag ace-1S [1]) is given as 12 nM and the IC50 (Md hmg AChE; [6]) is given as 340 nM.
With CCc1cccc(OC(=O)NC)c1 [Compound 5a] the IC50 (Ag hmg AChE; [7]) was 630 nM, the “IC50 ratio (hAChE/Ag hmg)” value (Ag hmg AChE) was “(4.0) x” and the IC50 (hAChE) was 2500 nM. For the same molecule, the “IC50 ratio (hAChE/Ag ace-1S)” value (Ag ace-1S [2]) was “(6.4x)”, the IC50 (Ag ace-1S [1]) was 392 nM and the IC50 (Md hmg AChE; [6]) was 13000 nM. The “Live Mosquito Contact Toxicity MC for 100% lethality at 24 hr” value (Anopheles gambiae) was 11 ug/cm^2.
In the case of CNC(=O)Oc1cccc(Cl)c1 [Compound 7a], the IC50 (Ag hmg AChE; [7]) is reported as 26000 nM, the “IC50 ratio (hAChE/Ag hmg)” value (Ag hmg AChE) is reported as “(3.3x)” and the IC50 (hAChE) is reported as 86000 nM. For the same molecule, the “IC50 ratio (hAChE/Ag ace-1S)” value (Ag ace-1S [2]) was “(5.2x)”, the IC50 (Ag ace-1S [1]) was 16600 nM and the IC50 (Md hmg AChE; [6]) was 50000 nM. The “Live Mosquito Contact Toxicity MC for 100% lethality at 24 hr” value (Anopheles gambiae) was 56 ug/cm^2.
In the case of CNC(=O)Oc1cccc(Br)c1 [Compound 8a], the IC50 (Ag hmg AChE; [7]) is reported as 24000 nM, the “IC50 ratio (hAChE/Ag hmg)” value (Ag hmg AChE) is reported as “(>4.2x)” and the IC50 (hAChE) is reported as > 100000 nM. The “IC50 ratio (hAChE/Ag ace-1S)” value (Ag ace-1S [2]) was “(>13x)”, the IC50 (Ag ace-1S [1]) was 7610 nM and the IC50 (Md hmg AChE; [6]) was 13000 nM. The “Live Mosquito Contact Toxicity MC for 100% lethality at 24 hr” value (Anopheles gambiae) was 11 ug/cm^2.
With CNC(=O)Oc1cccc(I)c1 [Compound 9a] the IC50 (Ag hmg AChE; [7]) was 5170 nM, the “IC50 ratio (hAChE/Ag hmg)” value (Ag hmg AChE) was “(13x)” and the IC50 (hAChE) was 67200 nM. For the same molecule, the “IC50 ratio (hAChE/Ag ace-1S)” value (Ag ace-1S [2]) was “(37x)”, the IC50 (Ag ace-1S [1]) was 1820 nM and the IC50 (Md hmg AChE; [6]) was 7000 nM. For the same molecule, the “Live Mosquito Contact Toxicity MC for 100% lethality at 24 hr” value (Anopheles gambiae) was 11 ug/cm^2.
For CNC(=O)Oc1cc(C)cc(C)c1 [Compound 10a], the IC50 (Ag hmg AChE; [7]) was 2780 nM, the “IC50 ratio (hAChE/Ag hmg)” value (Ag hmg AChE) was “(6.2x)” and the IC50 (hAChE) was 17400 nM. The “IC50 ratio (hAChE/Ag ace-1S)” value (Ag ace-1S [2]) was “(17x)”, the IC50 (Ag ace-1S [1]) was 1040 nM and the IC50 (Md hmg AChE; [6]) was 6000 nM. The “Live Mosquito Contact Toxicity MC for 100% lethality at 24 hr” value (Anopheles gambiae) was 56 ug/cm^2.
With CNC(=O)Oc1cc(C(C)(C)C)cc(C(C)(C)C)c1 [Compound 11a] the IC50 (Ag hmg AChE; [7]) was 5320 nM, the “IC50 ratio (hAChE/Ag hmg)” value (Ag hmg AChE) was “(1.0x)” and the IC50 (hAChE) was 5170 nM. The “IC50 ratio (hAChE/Ag ace-1S)” value (Ag ace-1S [2]) was “(2.1x)”, the IC50 (Ag ace-1S [1]) was 2470 nM and the IC50 (Md hmg AChE; [6]) was 78 nM. The “lethality at 24 h” value (Anopheles gambiae; at 11 ug/cm^2, 1 hr exposure) was “None at 11”.
In the case of CNC(=O)ON=C(C)SC [Methomyl, reference compound], the IC50 (Ag hmg AChE; [3]) is reported as 716 nM, the “IC50 ratio (hAChE/Ag hmg)” value (Ag hmg AChE) is reported as “(0.87x)” and the IC50 (hAChE; [5]) is reported as 626 nM. The “IC50 ratio (hAChE/Ag ace-1S)” value (Ag ace-1S [2]) was “(0.36x)”, the IC50 (Ag ace-1S [1]) was 1760 nM and the “Live Mosquito Contact Toxicity MC for 100% lethality at 24 hr” value (Anopheles gambiae) was 2.7 ug/cm^2.
In the case of CNC(=O)Oc1ccccc1OC(C)C [Propoxur, reference compound], the IC50 (Ag hmg AChE; [7]) is reported as 371 nM, the “IC50 ratio (hAChE/Ag hmg)” value (Ag hmg AChE) is reported as “(1.2x)” and the IC50 (hAChE) is reported as 444 nM. For the same molecule, the “IC50 ratio (hAChE/Ag ace-1S)” value (Ag ace-1S [2]) was “(2.1x)”, the IC50 (Ag ace-1S [1]) was 213 nM and the IC50 (Md hmg AChE; [6]) was 670 nM. The “Live Mosquito Contact Toxicity MC for 100% lethality at 24 hr” value (Anopheles gambiae) was 1.1 ug/cm^2.
